Reference: patent US8309068B2, “Isolated polypeptides and methods of improving muscle strength” (Myostin Therapeutics Pty Ltd., priority 2006, dated 2012)
Where no end group is shown, it is not given here.

Key:
[1] = system: TA muscle burn in C56b1/6 mice; experiment: In vivo muscle burn trial
Method: (§1) C56b1/6 mice at ˜12 months of age were anesthetized and a red-hot metal rod (1.5 mm wide, 7 mm long) was applied to TA muscle for 5 sec. The mice were injected subcutaneously with saline or 300 myostatin antagonists at 6 μg/g of body weight at day 1, 3, 5, 7 and 10 after injury. The mice were allowed to heal for 5, 7, 14, 21, 28, 35 and 46 days, after which they were culled and the muscle processed for histology.
Histological muscle samples were covered in OCT and frozen in isopentane cooled in liquid nitrogen. The sections were cut in a cryostat at 10 μm thickness and stained with H&E and Van Gieson. Regeneration markers such as total number of centrally formed nuclei (CFN) and number of fibres with CNF were analysed for each day following the different treatments, and the values plotted.

[2] = system: skin burn in C56b1/6 mice; experiment: In vivo skin burn trial (hydroxyproline assay); settings: 6 μg/g SC day 1, 3, 5, 7 and 10, vs control
Method: as §1, with “anesthetized, the skin at the back of the neck was shaved,” for “anesthetized”, “the exposed skin of the mice” for “TA muscle”, “with either” for “with”, “antagonist” for “antagonists”, “skin frozen in liquid nitrogen” for “muscle processed”, “hydroxyproline analysis.” for “histology.”
After a burn injury in skin a hydroxyproline assay was performed to determine the amount of collagen deposits on the wound area. Hydroxyproline is present in collagen, and gives it a stable helical conformation. Therefore, measuring the amount of hydroxyproline present in a given tissue will determine the amount of collagen present in the tissue.

satellite cells [3] = experiment: Single muscle fibre satellite cell activation assay (PCNA labeling); type: cell-based, mice
Method: Single fibres were isolated as previously described Rosenblatt et al., (1995). Briefly, 1 and 24 month old wild-type mice were euthanized by CO2 gas followed by cervical dislocation. TA were dissected out and digested in 0.2% (w/v) type 1A collagenase (>260 CDU/mg, Sigma) in Dulbecco's modified Eagle medium (DMEM) (Invitrogen) for 60 minutes at 37° C. Muscles were transferred to DMEM +10% horse serum (HS) +0.5% chicken embryo extract (CEE) and fibres were separated by gentle trituration. Isolated fibres were transferred to 4 well chamber slides (Becton Dickinson) coated with 10% matrigel (Becton Dickinson) and fixed with 100% ice cold methanol for 10 minutes after culturing up to 72 hours at 37° C. in 5% CO2.
Proliferating Cell Nuclear Antigen (PCNA) is expressed in cells that are actively undergoing cell cycle but not in quiescent cells. […] However, upon activation, satellite cells are activated to express PCNA and regenerate the muscle by replenishing the muscle fibres. Thus PCNA is a very reliable antigen to marker for the activated satellite cells.
In order to determine the effect of myostatin antagonists on satellite cell activation, single muscle fibres from TA muscle of young (1 month) or old (24 month) wild type mice were cultured in presence of 5 μg/ml of myostatin antagonist 320, 310 or 300, in culture media for 24, 48 and 72 hours and fixed with methanol and washed in PBS. The fixed fibres were permeabilised in 0.5% TritonX-100 in PBS for 10 minutes, blocked in 10% normal goat serum and 0.35% carrageenan lambda in PBS for 30 minutes at room temperature then incubated with a 1:100 dilution of anti-PCNA antibody in blocker overnight. Primary antibody was detected using goat anti-mouse-alexa fluor 546 and fibres were counterstained with DAPI. PCNA positive activated satellite cells were counted under microscope and expressed as a percent of total myonuclei.

satellite cells [4] = experiment: Satellite cell activation on single fibres from mice treated in vivo; settings: 6 μg/g BW SC three times a week for six weeks; end of treatment
Method: To test the effect of short term myostatin antagonist treatment on satellite cell activation, single fibres were isolated from mice from each treatment group (as described in example 4, below), and cultured as described above. Satellite cell activation was investigated using anti-PCNA antibodies as described.
An animal trial was conducted to assess the effects of myostatin antagonist 300 in improving muscle function. Sixteen month old mice were divided into two groups of ten. While the control group received saline subcutaneous (SC) injections, the other group received myostatin antagonist 300 SC at 6 μg/gram of BW three times a week for six weeks. The functional improvement of sarcopenic muscle was assessed by measuring grip strength of mice at the end of trial. Grip strength was measured in Newtons.

primary ovine myoblasts = experiment: Ovine myoblast proliferation assay; type: cell-based; settings: 1, 5 or 10 μg/ml; 48 hours
Method: Human skeletal muscle myoblasts (Cambrex, USA) or primary ovine myoblasts were grown in Dulbecco's Modified Eagle Medium containing 20% FBS, 10% Horse serum and 0.5% chicken embryo extract according to the standard techniques. The myoblast proliferation assay was carried out in uncoated 96-well microtitre plates. Cell cultures were seeded at 2000 cells/well. Following a 24-hour attachment period, test media supplemented with 5% FCS containing either buffer as a control or different myostatin antagonists (300, 310 or 320) were added at 1, 5 and 10 μg/ml and cells were incubated for a further 144 hour period (for human cells) or 48 hours (for ovine cells). After the incubation period, proliferation was assessed using methylene blue photometric endpoint assay as previously described (Thomas et al, 2000).

myostatin antagonist 300: recombinant peptide, amino acids 267-300 of bovine myostatin, with N terminal and C terminal tag (SEQ ID NO: 6) (DFGLDCDEHSTESRCCRYPLTVDFEAFGWDWIIA; cysteine pairing not given here; also: N- and C-terminal tags; listed as Homo sapiens)
H&E staining of the muscle ([1]; 21 days after burn injury): darker stained fibres, many with centrally formed nuclei | degree of fibrosis (van Gieson staining) ([1]; D21 after injury): higher degree of fibrosis in the control group | number of fibres with centrally formed nuclei (CFN) ([1]; after muscle burn, compared to saline): increased number | percentage of damage muscle area, treatment vs control ([1]; from D28 onwards, data not shown): no difference | numbers of centrally formed nuclei (CFN) ([1]; muscle burn, by D21, maintained up to day 46, vs control): significantly higher | collagen on the wound area (hydroxyproline assay) [2]: tendency towards lower level of collagen | percentage of activated satellite cells (satellite cells [3]; single fibres from old (2 year old) mice, 5 μg/ml, 24 or 48 hours): Significant increases | percentage of activated satellite cells, comparison among antagonists and times (satellite cells [3]; single fibres from old (2 year old) mice, after 48 hours): greatest increase | number of satellite cells activated (PCNA positive nuclei) (satellite cells [3]; single fibres from young (1 month old) wild type mice, 5 μg/ml, 24 or 48 hours): significant increase | satellite cell activation in fibres isolated from treated mice (satellite cells [4]): increase observed | proliferation capacity of ovine myoblasts compared to control (primary ovine myoblasts): significantly enhanced
